# Assay results reported in patent publication US20030147850A1 (priority 2002, published 2003).
# Test system: vesicular stomatitis virus (VSV)
# Type: cell-based
substance,measurement,value
Disodium succinate hexahydrate,"CPE inhibition, % of IFN control",0%
